# Measurements from ChEMBL document CHEMBL6083286, “Discovery of ERD-12310A as an Exceptionally Potent and Orally Efficacious PROTAC Degrader of Estrogen Receptor α (ERα)” (J Med Chem, 2024).
# The source made the active and inactive calls. No cut-off for these calls is given here.
# Experiments:
# [1] = Metabolic stability rat liver microsome assessed as half life; format: ADME; conditions: microsomes
# [2] = Stability in rat plasma assessed as half life; format: ADME, cell-free
# [3] = Stability in human plasma assessed as half life; format: ADME, cell-free
# [4] = Half life in rat at 3 mg/kg, po or 1 mg/kg, iv measured upto 24 hrs by LC-MS/MS analysis; format: ADME, organism-based; conditions: in vivo
# [5] = Oral bioavailability in mouse at 3 mg/kg measured upto 24 hrs by LC-MS/MS analysis; format: ADME, organism-based; conditions: in vivo
# [6] = Oral bioavailability in dog at 3 mg/kg measured upto 24 hrs by LC-MS/MS analysis; format: ADME, organism-based, Canis lupus familiaris; conditions: in vivo
# [7] = Stability in dog plasma assessed as half life; format: ADME, cell-free, Canis lupus familiaris
# [8] = target: T1, Cytochrome P450 1A2 (Homo sapiens, UniProt P05177); test: Inhibition of CYP1A2 in human liver microsomes incubated for 5 mins in presence of NADPH by LC-MS/MS analysis; format: ADME, Microsome
# T1 sequence (P05177 whole entry): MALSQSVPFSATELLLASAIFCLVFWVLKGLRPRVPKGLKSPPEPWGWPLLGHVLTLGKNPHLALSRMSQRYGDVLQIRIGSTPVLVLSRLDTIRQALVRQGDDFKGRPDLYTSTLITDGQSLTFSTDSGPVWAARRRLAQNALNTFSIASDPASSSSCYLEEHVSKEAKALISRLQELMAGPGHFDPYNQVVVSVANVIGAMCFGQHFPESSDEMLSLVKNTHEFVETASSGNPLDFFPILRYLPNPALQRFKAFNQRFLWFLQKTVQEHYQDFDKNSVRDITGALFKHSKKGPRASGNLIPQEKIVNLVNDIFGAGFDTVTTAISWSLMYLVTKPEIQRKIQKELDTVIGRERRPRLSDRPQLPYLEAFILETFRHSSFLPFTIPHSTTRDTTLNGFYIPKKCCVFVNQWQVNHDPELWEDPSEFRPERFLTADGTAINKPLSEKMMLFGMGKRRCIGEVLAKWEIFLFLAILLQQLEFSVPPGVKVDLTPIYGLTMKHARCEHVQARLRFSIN
# [9] = target: Cytochrome P450 2C9 (Homo sapiens, UniProt P11712); test: Inhibition of CYP2C9 in human liver microsomes incubated for 5 mins in presence of NADPH by LC-MS/MS analysis; format: ADME, Microsome
# [10] = target: T2, Cytochrome P450 3A4 (Homo sapiens, UniProt P08684); test: Inhibition of CYP3A4 in human liver microsomes using midazolam as substrate preincubated for 5 mins followed by NADPH addition and measured after 10 mins by LC-MS/MS analysis; format: ADME, Microsome
# [11] = target: T2, Cytochrome P450 3A4; test: Inhibition of CYP3A4 in human liver microsomes using testosterone as substrate preincubated for 5 mins followed by NADPH addition and measured after 10 mins by LC-MS/MS analysis; format: ADME, Microsome
# [12] = system: T47D; test: PROTAC activity at CRBN/ ERalpha Y537S mutant in human T47D cells assessed as reduction in ERalpha protein level at 10 to 100 nM measured at 7 hrs by Western blot analysis; format: cell-based; design: scale not given: the % may be the effect or the level left; conditions: dose 10-100 nM
# [13] = target: T3, Protein cereblon/Estrogen receptor (Homo sapiens, UniProt P03372+Q96SW2); test: PROTAC activity at CRBN/ERalpha in human MCF7 cells assessed as reduction in ERalpha protein level at 5 nM measured for 4 hrs in presence of lasofoxifene by Western blot analysis; format: cell-based
# [14] = target: T3, Protein cereblon/Estrogen receptor; test: PROTAC activity at CRBN/ERalpha in human MCF7 cells assessed as reduction in ERalpha protein level at 5 nM measured for 4 hrs in presence of MLN-4924 by Western blot analysis; format: cell-based
# [15] = system: MCF7; test: Antiproliferative activity against human MCF7 cells assessed as cell growth inhibition incubated for 4 days by crystal violet staining based assay; format: functional; conditions: time 4.0 day
# [16] = Drug concentration in SCID mouse plasma at 10 mg/kg, po administered daily for 3 days and measured after 6 hrs by LC-MS/MS analysis; format: ADME, organism-based
# [17] = Drug concentration in SCID mouse tumor at 10 mg/kg, po administered daily for 3 days and measured after 6 hrs by LC-MS/MS analysis; format: ADME, organism-based, Neoplasm; conditions: time 3 day, read-out: Ct
# [18] = Drug concentration in SCID mouse plasma at 30 mg/kg, po administered daily for 3 days and measured after 24 hrs by LC-MS/MS analysis; format: ADME, organism-based
# [19] = system: MCF7; test: Antitumor activity against human MCF7 cells xenografted in SCID mouse assessed as tumor growth inhibition at 10 mg/kg, po administered for 41 to 76 days; format: functional; conditions: time 41-76 day, read-out: TGI
# [20] = system: MCF7; test: Antitumor activity against human MCF7 cells expressing ESR1 Y537S mutant xenografted in SCID mouse assessed as tumor growth inhibition at 30 mg/kg, po administered 5 days a week for 7 weeks; format: functional; conditions: MCF7, 1176 h, read-out: TGI
# [21] = Drug concentration in SCID mouse plasma at 10 mg/kg, po administered once daily for 3 days measured after 24 hrs by LC-MS/MS analysis; format: ADME, organism-based
# [22] = Drug concentration in SCID mouse plasma at 30 mg/kg, po administered once daily for 3 days measured after 24 hrs by LC-MS/MS analysis; format: ADME, organism-based
# T2 sequence (P08684 whole entry): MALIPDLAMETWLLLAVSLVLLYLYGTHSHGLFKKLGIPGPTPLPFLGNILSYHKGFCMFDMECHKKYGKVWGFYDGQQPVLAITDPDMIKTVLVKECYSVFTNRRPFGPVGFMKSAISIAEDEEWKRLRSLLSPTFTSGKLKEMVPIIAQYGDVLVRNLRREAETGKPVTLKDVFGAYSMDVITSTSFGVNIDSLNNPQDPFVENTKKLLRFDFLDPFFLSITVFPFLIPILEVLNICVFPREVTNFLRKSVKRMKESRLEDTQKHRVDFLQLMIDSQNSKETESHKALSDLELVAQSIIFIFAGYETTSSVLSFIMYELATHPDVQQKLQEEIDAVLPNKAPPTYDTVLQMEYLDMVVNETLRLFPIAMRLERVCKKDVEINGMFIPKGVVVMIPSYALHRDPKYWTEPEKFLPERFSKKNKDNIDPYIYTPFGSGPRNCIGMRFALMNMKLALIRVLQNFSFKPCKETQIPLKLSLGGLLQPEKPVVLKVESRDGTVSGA
# T3 sequence (P03372 whole entry, looked up): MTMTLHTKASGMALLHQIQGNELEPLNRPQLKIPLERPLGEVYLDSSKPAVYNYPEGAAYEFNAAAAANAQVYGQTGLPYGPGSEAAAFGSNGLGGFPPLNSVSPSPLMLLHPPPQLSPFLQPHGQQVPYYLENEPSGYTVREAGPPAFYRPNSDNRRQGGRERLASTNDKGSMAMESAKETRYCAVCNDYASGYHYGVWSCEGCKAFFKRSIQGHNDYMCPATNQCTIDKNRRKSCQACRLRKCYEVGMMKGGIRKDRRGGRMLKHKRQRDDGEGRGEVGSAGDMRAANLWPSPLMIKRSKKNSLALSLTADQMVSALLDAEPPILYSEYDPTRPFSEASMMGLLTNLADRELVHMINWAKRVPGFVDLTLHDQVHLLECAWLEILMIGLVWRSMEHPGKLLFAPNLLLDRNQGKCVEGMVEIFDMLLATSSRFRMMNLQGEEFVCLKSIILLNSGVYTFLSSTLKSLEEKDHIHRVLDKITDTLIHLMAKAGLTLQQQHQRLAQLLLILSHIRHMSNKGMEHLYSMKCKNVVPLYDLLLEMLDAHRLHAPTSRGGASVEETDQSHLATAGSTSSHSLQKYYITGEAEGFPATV
# T3 sequence (Q96SW2 whole entry, looked up): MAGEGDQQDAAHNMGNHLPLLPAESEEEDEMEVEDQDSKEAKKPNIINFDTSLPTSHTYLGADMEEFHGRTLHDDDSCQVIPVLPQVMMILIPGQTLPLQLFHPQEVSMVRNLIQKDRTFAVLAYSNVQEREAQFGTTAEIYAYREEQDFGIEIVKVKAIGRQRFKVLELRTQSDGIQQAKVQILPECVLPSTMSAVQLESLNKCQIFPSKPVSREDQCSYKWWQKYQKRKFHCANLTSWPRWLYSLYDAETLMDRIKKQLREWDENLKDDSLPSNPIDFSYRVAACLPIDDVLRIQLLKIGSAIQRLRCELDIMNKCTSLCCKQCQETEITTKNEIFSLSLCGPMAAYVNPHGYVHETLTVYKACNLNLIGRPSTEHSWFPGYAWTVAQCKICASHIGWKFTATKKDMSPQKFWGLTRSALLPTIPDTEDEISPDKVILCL
# Cytochrome P450 2C9, sequence (P11712 whole entry): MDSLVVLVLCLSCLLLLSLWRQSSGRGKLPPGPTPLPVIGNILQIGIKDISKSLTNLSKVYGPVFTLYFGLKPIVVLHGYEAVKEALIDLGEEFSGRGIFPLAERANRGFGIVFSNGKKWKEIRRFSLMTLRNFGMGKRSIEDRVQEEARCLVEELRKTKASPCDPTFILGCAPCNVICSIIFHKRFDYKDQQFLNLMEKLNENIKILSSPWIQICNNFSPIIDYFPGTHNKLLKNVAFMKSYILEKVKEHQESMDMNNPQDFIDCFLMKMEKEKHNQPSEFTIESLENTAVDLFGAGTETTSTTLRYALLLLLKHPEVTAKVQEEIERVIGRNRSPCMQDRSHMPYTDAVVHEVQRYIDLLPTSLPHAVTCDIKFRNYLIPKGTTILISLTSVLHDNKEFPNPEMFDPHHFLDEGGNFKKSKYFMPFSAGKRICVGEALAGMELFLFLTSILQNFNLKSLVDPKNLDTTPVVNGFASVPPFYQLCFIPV
smiles,measurement,setting,value
O=C1CC[C@H](N2Cc3c(ccc4c3OCC43CCN(C[C@@H]4CCC5(CCN(c6ccc([C@@H]7c8ccc(O)cc8CC[C@@H]7c7ccccc7)cc6)CC5)OC4)CC3)C2=O)C(=O)N1,t1/2,[1],> 1 h
same,t1/2,[2],> 4 h
same,t1/2,[3],> 4 h
same,t1/2,[4],5.6 h
same,F,[5],37%
same,F,[6],49%
same,t1/2,[7],> 4 h
same,IC50,[8],> 10 µM
same,IC50,[9],> 10 µM
same,IC50,[10],> 10 µM
same,IC50,[11],> 10 µM
same,Activity,[12],> 80%
same,Activity,[13],inactive
same,Activity,[14],inactive
same,Activity,[15],Active
same,concentration at 78 h,[16],380 ng/mL
same,concentration at 72 h,[17],975 ng/mL
same,concentration at 96 h,[18],50 ng/mL
same,inhibition in vivo at 10 mg/kg,[19],94%
same,inhibition in vivo at 30 mg/kg,[20],100%
same,concentration at 96 h,[21],18 ng/mL
same,concentration at 96 h,[22],72 ng/mL
